# Results: patent US7304039B2, “Glucose-based compounds with affinity to P-selectin” (Astellas Pharma Europe B.V., priority 2002, dated 2007)
# Target: T1, human P-selectin (Homo sapiens, UniProt P16109)
# T1 sequence (P16109 42-771): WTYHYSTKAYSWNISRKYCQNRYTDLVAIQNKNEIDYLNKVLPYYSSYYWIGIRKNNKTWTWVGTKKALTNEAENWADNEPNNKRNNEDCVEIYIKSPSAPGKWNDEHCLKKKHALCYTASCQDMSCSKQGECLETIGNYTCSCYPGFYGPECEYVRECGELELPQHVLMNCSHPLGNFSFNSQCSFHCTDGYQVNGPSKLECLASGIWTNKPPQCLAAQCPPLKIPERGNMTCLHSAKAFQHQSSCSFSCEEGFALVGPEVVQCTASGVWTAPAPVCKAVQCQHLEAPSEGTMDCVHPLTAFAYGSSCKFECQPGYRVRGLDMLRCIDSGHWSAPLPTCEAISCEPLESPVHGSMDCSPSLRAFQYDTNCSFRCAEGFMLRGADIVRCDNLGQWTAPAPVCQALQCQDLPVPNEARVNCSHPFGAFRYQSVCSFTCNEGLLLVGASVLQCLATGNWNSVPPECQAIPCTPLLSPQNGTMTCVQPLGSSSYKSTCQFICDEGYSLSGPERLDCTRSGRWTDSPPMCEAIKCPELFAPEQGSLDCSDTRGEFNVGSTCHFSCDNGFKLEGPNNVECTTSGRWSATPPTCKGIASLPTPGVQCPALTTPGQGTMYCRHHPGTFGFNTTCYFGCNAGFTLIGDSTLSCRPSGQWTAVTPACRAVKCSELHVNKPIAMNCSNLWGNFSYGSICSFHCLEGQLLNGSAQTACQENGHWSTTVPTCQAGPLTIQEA
# Test: inhibition assay of SO3-sLea-PAA-biotin binding to immobilized P-selectin
# Settings: inhibition of HSO3-Lea-PAA-biotin (0.33 μg/ml) binding to immobilized human P-selectin/IgG-Fc, 2 hours at 37° C.
# Protocol: The activity of compound 3 was evaluated in an inhibition assay of SO3-sLe^a-PAA-biotin binding to immobilized P-selectin as described in the literature (G. Weitz-Schmedt et al., Anal. Biochem. 238, 184-190, 1996) and compared to that of its mannosyl analogue (reference compound 2). A 96 microtiter plate (High binding flat bottom, Costar, Corning, U.S.A.) was coated overnight at 4° C. with 10 μg/ml goat anti-human IgG in coating buffer (50 mM NaHCO3, pH 9.6). Subsequently, wells were washed with assay buffer (20 mM HEPES, 150 mM NaCl, 1 mM CaCl2, pH 7.4) and incubated for 1 hour at 37° C. with blocking buffer (3% BSA in assay buffer). After washing with assay buffer, the wells were incubated for 2 hours at 37° C. with human P-selectin/IgG-Fc (0.3 μg/ml) or CD4/IgG-Fc (as negative control). Subsequently, wells were washed three times with assay buffer and incubated for 2 hours at 37° C. in binding buffer (0.1% BSA, 0.05% Tween 20 in assay buffer) with 0.33 μg/ml HSO3-Le^a-PAA-biotin and the compound. The wells were washed six times with binding buffer and 3,3′,5,5′-tetramethylbenzine (TMB)/H2O2 was added and incubated at room temperature for 15 minutes. The reaction was halted by addition of 2M H2SO4 and the absorbance was measured at 450 nm.
# The binding of compounds 6d, 6f, and 6i to P-selectin was evaluated using the same inhibition assay as described in example 2.
row,SMILES,EC50
1,O=C(COP(=O)(O)O)C(O)C(O)COC1OC(CO)C(O)C(O)C1O (centres unmarked) [Compound 3],2 mM
2,CCCCCCCC(=O)NC1C(OCC(O)C(O)C(=O)COP(=O)(O)O)OC(CO)C(O)C1O (centres unmarked) [Compound 6c],4.5 mM
3,O=C(NC1C(OCC(O)C(O)C(=O)COP(=O)(O)O)OC(CO)C(O)C1O)OCC(Cl)(Cl)Cl (centres unmarked) [Compound 6d],3.7 mM
4,O=C(NC1C(OCC(O)C(O)C(=O)COP(=O)(O)O)OC(CO)C(O)C1O)c1ccccc1 (centres unmarked) [Compound 6f],0.9 mM
5,"O=C(COP(=O)(O)O)C(O)C(O)COC1OC(CO)C(O)C(O)C1O (centres unmarked) [Reference compound 2, reference compound]",8.2 mM
